Assay results: paper PMC8062543 (Scientific Reports, 2021)
One block for each molecule: values may come before it.

Tests used:
MtmGDH [1] = target: T1, MtmGDH (Methylotuvimicrobium alcaliphilum, UniProt G4T0V2); assay: biochemical; settings: read-out: % of control remaining; for remaining activity at 1000 µM: 1 mM; for remaining activity at 5000 µM: 5 mM
T1 construct: gene gdhI; full ORF, N-terminal His6 kept, E. coli Rosetta (DE3), pET28
T1 sequence (G4T0V2 1-271): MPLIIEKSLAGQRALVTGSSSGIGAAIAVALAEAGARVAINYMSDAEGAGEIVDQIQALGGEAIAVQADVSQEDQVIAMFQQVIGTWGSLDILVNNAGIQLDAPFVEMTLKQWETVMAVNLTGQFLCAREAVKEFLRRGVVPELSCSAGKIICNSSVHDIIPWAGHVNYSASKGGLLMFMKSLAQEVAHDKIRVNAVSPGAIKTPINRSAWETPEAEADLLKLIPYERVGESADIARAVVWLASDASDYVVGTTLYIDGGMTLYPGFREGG
Procedure: GDH activity assay The activity of GDH from Mtm. alcaliphilum was measured by recording the rate of NAD^+ or NADP^+ reduction at 30 °C. 1 mL of the reaction mixture routinely contained 50 mM Glycine–NaOH buffer, pH 10.0; 0.3 mM NAD(P)^+ and ~ 1 μg of GDH. The reaction was started with 200 mM D-glucose. The activity of Mb. luteus GDH was measured using 20 mM D-glucose in 50 mM Tris–HCl, pH 8.5. […] The effect of pH on the activity was studied using the following buffers (50 mM): Glycine–NaOH (pH 9.0–10.5), CHES-NaOH (pH 8.5–10.0), Tris–HCl (pH 7.5–9.0), and MES-NaOH (pH 5.0–7.0). KCl, NH4Cl or NaCl at a final concentration of 50 mM were added to test the effect of monovalent ions on the enzyme activity. The effects of divalent metals were assessed using MgCl2, MnCl2, [compound left out], CuCl2, CdCl2, NiCl2 or ZnCl2 at a final concentration of 1 mM. Glucose-6-phosphate, glucose-1-phosphate, fructose-6-phosphate, fructose-1,6-bisphosphate (5 mM), pyruvate, PEP, oxaloacetate, lactate, malate, isocitrate, citrate, succinate, serine, α-ketoglutarate, ATP, ADP, AMP and PPi (1 mM) were examined as potential inhibitors or activators. To determine the optimal temperature for enzyme activity, the reaction was carried out in a temperature range of 10–70 °C.

MtmGntK = target: T2, MtmGntK (Methylotuvimicrobium alcaliphilum, UniProt G4T089); assay: biochemical; design: recombinant gluconate kinase activity, coupled to 6-phosphogluconate dehydrogenase, NADPH at 340 nm, effect of added metabolite; settings: read-out: % of control remaining; for remaining activity at 5000 µM: 5 mM; for remaining activity at 1000 µM: 1 mM
T2 construct: gene gntK; C-terminal His6, E. coli Rosetta (DE3), pET30; ~20 kDa, monomer
T2 sequence (G4T089 1-181): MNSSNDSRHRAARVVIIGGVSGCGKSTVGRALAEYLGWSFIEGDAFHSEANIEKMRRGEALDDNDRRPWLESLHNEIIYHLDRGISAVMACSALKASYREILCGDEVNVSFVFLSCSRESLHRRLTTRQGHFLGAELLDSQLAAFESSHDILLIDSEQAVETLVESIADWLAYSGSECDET
Procedure: GntK activity assay The activity of GntK was measured in the reaction mixture containing 50 mM Tris–HCl buffer, pH 9.0; 8 mM MgCl2; 6 mM gluconate; 5 mM ATP; 0.3 mM NADP^+; 5U 6-phosphogluconate dehydrogenase (6PGDH, Sigma-Aldrich) as a coupling enzyme and ~ 15 µg GntK. The activity of Mb. luteus GntK was assayed in 50 mM Tris–HCl buffer (pH 8.0). The reaction was started with 6 mM sodium gluconate. To study the effect of pH, the following buffers were used (50 mM): Carbonate (pH 9.0–10.5), TAPS-NaOH (pH 8.0–9.0), Tris–HCl (pH 7.5–9.0), K-phosphate (pH 7.0–8.0), MES-NaOH (pH 5.0–6.0) or citrate (pH 4.0–5.0). […] The NAD^+/NADP^+ reduction rates were measured at 340 nm with a UV-1700 spectrophotometer (Shimadzu). The apparent Km and Vmax values were calculated using Sigma Plot (version 10). The exponentially grown cells were used to measure enzymatic activity in cell-free extracts.

MbGDH = target: T3, MbGDH (Methylobacter luteus, UniProt Z9JUG8QEO0); assay: NAD(P)H formation at […] nm; type: biochemical; settings: inhibitor; 10 mM in results (5 mM in methods); pH 8.5 Tris-HCl, 20 mM D-glucose
T3 construct: gene gdh; full ORF, N-terminal His6 (pET28Ub-shHis)

MtmGDH [2] = target: T4, MtmGDH (Methylotuvimicrobium alcaliphilum, UniProt G4T0V2); assay: NAD(P)H formation at […] nm; type: biochemical; settings: activator; pH 10.0 glycine-NaOH, 30 °C, 200 mM D-glucose
T4 construct: gene gdhI; full ORF, N-terminal His6 kept, E. coli Rosetta (DE3), pET28

[3] = test system: T5, NC(=O)c1ccc[n+]([C@@H]2O[C@H](COP(=O)(O)OP(=O)(O)OC[C@H]3O[C@@H](n4cnc5c(N)ncnc54)[C@H](O)[C@@H]3O)[C@@H](O)[C@H]2O)c1; assay: purified protein; type: biochemical, Methylobacter luteus; settings: pH 8.5 Tris-HCl, D-glucose
T5 construct: full ORF, N-terminal His6 (pET28Ub-shHis)

[4] = test system: T6, NC(=O)c1ccc[n+]([C@@H]2O[C@H](COP(=O)(O)OP(=O)(O)OC[C@H]3O[C@@H](n4cnc5c(N)ncnc54)[C@H](OP(=O)(O)O)[C@@H]3O)[C@@H](O)[C@H]2O)c1; assay: purified protein; type: biochemical, Methylobacter luteus; settings: pH 8.5 Tris-HCl, D-glucose
T6 construct: full ORF, N-terminal His6 (pET28Ub-shHis)

[5] = target: glucose dehydrogenase (GDH) from Methylobacter luteus IMV-B-3098 (Methylobacter luteus IMV-B-3098); assay: SEC; gel filtration on XK 16/100 Superdex 200, 0.02 M Tris-HCl pH 7.0 with 0.5 M NaCl, calibrated with protein markers; GDHs with the cut-off His-tag
[6] = target: glucose dehydrogenase (GDH) from Methylotuvimicrobium alcaliphilum 20Z (Methylotuvimicrobium alcaliphilum 20Z); assay: as above
purified protein [7] = substrate: NC(=O)c1ccc[n+]([C@@H]2O[C@H](COP(=O)(O)OP(=O)(O)OC[C@H]3O[C@@H](n4cnc5c(N)ncnc54)[C@H](O)[C@@H]3O)[C@@H](O)[C@H]2O)c1; assay: purified protein; type: biochemical, Methylotuvimicrobium alcaliphilum; settings: pH 10.0 glycine-NaOH, 30 °C, 200 mM D-glucose
purified protein [8] = substrate: NC(=O)c1ccc[n+]([C@@H]2O[C@H](COP(=O)(O)OP(=O)(O)OC[C@H]3O[C@@H](n4cnc5c(N)ncnc54)[C@H](OP(=O)(O)O)[C@@H]3O)[C@@H](O)[C@H]2O)c1; assay: purified protein; type: biochemical, Methylotuvimicrobium alcaliphilum; settings: pH 10.0 glycine-NaOH, 30 °C, 200 mM D-glucose
purified protein [9] = substrate: Nc1ncnc2c1ncn2[C@@H]1O[C@H](COP(=O)(O)OP(=O)(O)OP(=O)(O)O)[C@@H](O)[C@H]1O; assay: purified protein; type: biochemical, Methylotuvimicrobium alcaliphilum; settings: pH 9.0 Tris-HCl, 8 mM MgCl2, 6 mM gluconate, Hill n = 1.6
purified protein [10] = substrate: O=C(O)[C@H](O)[C@@H](O)[C@H](O)[C@H](O)CO; assay: purified protein; type: biochemical, Methylotuvimicrobium alcaliphilum; settings: pH 9.0 Tris-HCl, 8 mM MgCl2, 5 mM ATP

T3 sequence (Z9JUG8QEO0 1-271 limits assumed): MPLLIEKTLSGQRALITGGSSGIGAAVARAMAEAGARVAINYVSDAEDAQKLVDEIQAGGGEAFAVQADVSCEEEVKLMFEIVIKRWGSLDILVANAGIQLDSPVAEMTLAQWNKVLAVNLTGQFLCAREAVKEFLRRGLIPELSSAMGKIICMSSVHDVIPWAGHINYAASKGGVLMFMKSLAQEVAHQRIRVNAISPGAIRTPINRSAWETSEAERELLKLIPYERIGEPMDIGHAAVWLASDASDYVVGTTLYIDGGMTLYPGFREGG

- remaining activity at 1000 µM (MtmGDH [1]): 87 ± 1%
- remaining activity at 5000 µM (MtmGntK): 71 ± 1%
Molecule: Nc1ncnc2c1ncn2[C@@H]1O[C@H](COP(=O)(O)OP(=O)(O)O)[C@@H](O)[C@H]1O [ADP]

- remaining activity at 1000 µM (MtmGDH [1]): 109 ± 1%
- remaining activity at 4000 µM (MtmGntK; 4 mM): 98 ± 1%
Molecule: Nc1ncnc2c1ncn2[C@@H]1O[C@H](COP(=O)(O)O)[C@@H](O)[C@H]1O [AMP]

- remaining activity at 1000 µM (MtmGDH [1]): 93 ± 2%
Molecule: Nc1ncnc2c1ncn2[C@@H]1O[C@H](COP(=O)(O)OP(=O)(O)OP(=O)(O)O)[C@@H](O)[C@H]1O [ATP]

Molecule: O=C(O)CC(O)(CC(=O)O)C(=O)O [Citrate]
- remaining activity at 1000 µM (MtmGDH [1]): 119 ± 1%

- remaining activity at 5000 µM (MtmGDH [1]): 103 ± 1%
Molecule: O=P(O)(O)OC[C@H]1O[C@@](O)(COP(=O)(O)O)[C@@H](O)[C@@H]1O [Fructose-1,6-bisphosphate]

- remaining activity at 5000 µM (MtmGDH [1]): 101 ± 1%
Molecule: O=C(CO)[C@@H](O)[C@H](O)[C@H](O)COP(=O)(O)O [Fructose-6-phosphate]

- remaining activity at 5000 µM (MtmGntK): 96 ± 2%
Molecule: O=P(O)(O)O[C@H]1O[C@H](CO)[C@@H](O)[C@H](O)[C@H]1O [Glucose 1-Phosphate]

- remaining activity at 5000 µM (MtmGDH [1]): 103 ± 1%
Molecule: O=P(O)(O)O[C@H]1O[C@H](CO)[C@@H](O)[C@H](O)[C@H]1O [Glucose-1-phosphate]

- remaining activity at 1000 µM (MtmGDH [1]): 116 ± 1%
Molecule: CC(O)C(=O)O (stereo not drawn) [Lactate]

Molecule: O=C(O)CC(O)C(=O)O (stereo not drawn) [Malate]
- remaining activity at 1000 µM (MtmGDH [1]): 95 ± 5%

- remaining activity at 1000 µM (MtmGDH [1]): 107 ± 3%
- remaining activity at 1000 µM (MtmGntK): 101 ± 1%
Molecule: O=C(O)CC(=O)C(=O)O [Oxaloacetate]

- remaining activity at 1000 µM (MtmGDH [1]): 94%
- remaining activity at 5000 µM (MtmGntK): 84 ± 1%
Molecule: C=C(OP(=O)(O)O)C(=O)O [Phosphoenolpyruvate]

- remaining activity at 1000 µM (MtmGDH [1]): 96 ± 1%
- remaining activity at 3000 µM (MtmGntK; 3 mM): 95 ± 2%
Molecule: CC(=O)C(=O)O [Pyruvate]

- remaining activity at 1000 µM (MtmGDH [1]): 108 ± 3%
Molecule: N[C@@H](CO)C(=O)O [Serine]

- remaining activity at 1000 µM (MtmGDH [1]): 99 ± 1%
Molecule: O=C(O)CCC(=O)O [Succinate]

- % decrease of activity at 10 mM (MbGDH): 40%
- remaining activity at 5000 µM (MtmGntK): 96 ± 1%
Molecule: O=P(O)(O)OC[C@H]1OC(O)[C@H](O)[C@@H](O)[C@@H]1O (stereo partly drawn) [glucose-6-phosphate]

- % increase of activity at 1 mM (MtmGDH [2]): 40%
- remaining activity at 1000 µM (MtmGDH [1]): 140 ± 4%
Molecule: O=C(O)C[C@H](C(=O)O)[C@@H](O)C(=O)O [isocitrate]

- remaining activity at 1000 µM (MtmGDH [1]): 104 ± 1%
- remaining activity at 1000 µM (MtmGntK): 90 ± 2%
Molecule: O=C(O)CCC(=O)C(=O)O [α-Ketoglutarate]

Molecule: MbGDH (Methylobacter luteus)
- Km [3]: 0.12 ± 0.02 mM
- kcat [3]: 3 min⁻¹
- Km [4]: 1.6 ± 0.3 mM
- kcat [4]: 4 min⁻¹

- stoichiometry N [5]: 4
Molecule: glucose dehydrogenase (GDH) from Methylobacter luteus IMV-B-3098 (enzyme)

- stoichiometry N [6]: 4
Molecule: glucose dehydrogenase (GDH) from Methylotuvimicrobium alcaliphilum 20Z (enzyme)

B1: MtmGDH without His6-tag (Methylotuvimicrobium alcaliphilum 20Z) (protein)
chain: MPLIIEKSLAGQRALVTGSSSGIGAAIAVALAEAGARVAINYMSDAEGAGEIVDQIQALGGEAIAVQADVSQEDQVIAMFQQVIGTWGSLDILVNNAGIQLDAPFVEMTLKQWETVMAVNLTGQFLCAREAVKEFLRRGVVPELSCSAGKIICNSSVHDIIPWAGHVNYSASKGGLLMFMKSLAQEVAHDKIRVNAVSPGAIKTPINRSAWETPEAEADLLKLIPYERVGESADIARAVVWLASDASDYVVGTTLYIDGGMTLYPGFREGG
notes: full ORF, His6 tag cut off with Usp2-His6 protease (not repurified afterwards), E. coli Rosetta (DE3), pET28Ub-shHis; homotetramer 112 kDa
- Km (purified protein [7]): 0.39 ± 0.06 mM
- Km (purified protein [8]): 0.34 ± 0.02 mM

B2: MtmGDH (Methylotuvimicrobium alcaliphilum 20Z) (protein)
chain: MPLIIEKSLAGQRALVTGSSSGIGAAIAVALAEAGARVAINYMSDAEGAGEIVDQIQALGGEAIAVQADVSQEDQVIAMFQQVIGTWGSLDILVNNAGIQLDAPFVEMTLKQWETVMAVNLTGQFLCAREAVKEFLRRGVVPELSCSAGKIICNSSVHDIIPWAGHVNYSASKGGLLMFMKSLAQEVAHDKIRVNAVSPGAIKTPINRSAWETPEAEADLLKLIPYERVGESADIARAVVWLASDASDYVVGTTLYIDGGMTLYPGFREGG
notes: full ORF, N-terminal His6 kept, E. coli Rosetta (DE3), pET28
- Km (purified protein [7]): 0.36 ± 0.02 mM
- kcat (purified protein [7]): 10.6 min⁻¹
- Km (purified protein [8]): 0.14 ± 0.01 mM
- kcat (purified protein [8]): 0.35 min⁻¹

B3: MtmGntK (Methylotuvimicrobium alcaliphilum 20Z) (protein)
chain: MNSSNDSRHRAARVVIIGGVSGCGKSTVGRALAEYLGWSFIEGDAFHSEANIEKMRRGEALDDNDRRPWLESLHNEIIYHLDRGISAVMACSALKASYREILCGDEVNVSFVFLSCSRESLHRRLTTRQGHFLGAELLDSQLAAFESSHDILLIDSEQAVETLVESIADWLAYSGSECDET
notes: C-terminal His6, E. coli Rosetta (DE3), pET30; ~20 kDa, monomer
- K0.5 (purified protein [9]): 1.3 ± 0.2 mM
- kcat (purified protein [9]): 0.52 min⁻¹
- K0.5 (purified protein [10]): 0.6 ± 0.04 mM
- kcat (purified protein [10]): 0.26 min⁻¹
